28 compounds from patent publication US7960376B2, “Benzo-fused heterocycles” (priority 2007, dated 2011) can be followed below.

For one assay, the target named is T1, rat CB2 receptor (rCB2) (Rattus norvegicus, UniProt Q9QZN9).
T1 sequence (Q9QZN9 1-360): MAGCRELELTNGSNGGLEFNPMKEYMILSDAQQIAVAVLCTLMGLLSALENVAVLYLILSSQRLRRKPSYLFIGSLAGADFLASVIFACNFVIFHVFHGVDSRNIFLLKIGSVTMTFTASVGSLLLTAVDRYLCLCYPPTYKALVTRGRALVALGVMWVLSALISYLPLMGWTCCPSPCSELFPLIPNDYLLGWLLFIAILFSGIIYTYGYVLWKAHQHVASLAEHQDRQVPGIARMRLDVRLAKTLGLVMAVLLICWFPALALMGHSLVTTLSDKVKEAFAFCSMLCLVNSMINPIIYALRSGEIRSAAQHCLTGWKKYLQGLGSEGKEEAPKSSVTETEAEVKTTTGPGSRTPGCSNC
The assay is described as follows: cell-based. The assay is classed as cell-based. Conditions: intracellular cAMP, CHO-K1 cells, NKH-477 prestimulated; + agonist, − inverse agonist.

The target of assay [1] is human CB2 receptor (hCB2) (Homo sapiens, UniProt P34972). The assay is described as follows: cell-based. The conditions noted are these: intracellular cAMP, CHO-K1 cells, NKH-477 prestimulated; + agonist, − inverse agonist. In kind it is cell-based.
human CB2 receptor (hCB2), sequence (P34972 whole entry): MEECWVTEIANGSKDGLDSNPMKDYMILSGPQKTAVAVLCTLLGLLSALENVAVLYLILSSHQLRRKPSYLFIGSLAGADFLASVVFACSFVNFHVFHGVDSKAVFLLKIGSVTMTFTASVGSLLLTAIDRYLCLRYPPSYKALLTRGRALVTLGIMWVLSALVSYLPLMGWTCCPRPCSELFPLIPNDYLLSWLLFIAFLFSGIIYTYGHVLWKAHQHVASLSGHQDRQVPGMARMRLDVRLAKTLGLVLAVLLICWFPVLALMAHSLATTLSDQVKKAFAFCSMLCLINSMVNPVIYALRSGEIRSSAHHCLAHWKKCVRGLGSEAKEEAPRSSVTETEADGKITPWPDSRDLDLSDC

For `CC(C)(C)NC(=O)c1ccc2c(c1)N(C(=O)c1ccccc1)CCS2` [Example 9, 4-benzoyl-N-tert-butyl-3,4-dihydro-2H-benzo[b][1,4]thiazine-6-carboxamide], on rat CB2 receptor (rCB2), the “rCB2 EC50 range” value was “−D”.
As to `CC(C)(C)NC(=O)c1ccc2c(c1)N(C(=O)c1ccc(Cl)cc1)CCS2` [Example 10, N-tert-butyl-4-(4-chlorobenzoyl)-3,4-dihydro-2H-benzo[b][1,4]thiazine-6-carboxamide], the “rCB2 EC50 range” value on rat CB2 receptor (rCB2) is given as “+D”. Moreover, the “hCB2 EC50 range” value in assay [1] is on record as “+D”.
`COc1ccc(C(=O)N2CCSc3ccc(C(=O)NC4CCCC4)cc32)cc1` [Example 11, N-cyclopentyl-4-(4-methoxybenzoyl)-3,4-dihydro-2H-benzo[b] [1,4]thiazine-6-carboxamide]: at rat CB2 receptor (rCB2), the “rCB2 EC50 range” value is listed as “−D”. Besides, the “hCB2 EC50 range” value in assay [1] is “−E”.
Consider `O=C(NC1CCCC1)c1ccc2c(c1)N(C(=O)c1ccc(Cl)cc1)CCS2` [Example 15, N-cyclopentyl-4-(4-chlorobenzoyl)-3,4-dihydro-2H-benzo[b] [1,4]thiazine-6-carboxamide], for which the “rCB2 EC50 range” value on rat CB2 receptor (rCB2) is “−E”.
On to `COCCCNC(=O)c1ccc2c(c1)N(C(=O)c1ccccc1)CCS2` [Example 16, 4-benzoyl-N-(3-methoxypropyl)-3,4-dihydro-2H-benzo[b][1,4]thiazine-6-carboxamide], for which the “rCB2 EC50 range” value at rat CB2 receptor (rCB2) is “−D”. In assay [1], the “hCB2 EC50 range” value is reported as “−E”.
On to `COCCCNC(=O)c1ccc2c(c1)N(C(=O)c1ccc(F)cc1)CCS2` [Example 17], for which the “rCB2 EC50 range” value on rat CB2 receptor (rCB2) is “−E”.
Consider `COCCCNC(=O)c1ccc2c(c1)N(C(=O)c1ccc(C)cc1)CCS2` [Example 18, N-(3-methoxypropyl)-4-(4-methylbenzoyl)-3,4-dihydro-2H-benzo[b][1,4]thiazine-6-carboxamide], for which the “rCB2 EC50 range” value on rat CB2 receptor (rCB2) was “−E”. Moreover, the “hCB2 EC50 range” value in assay [1] is reported as “−E”.
Consider `COCCCNC(=O)c1ccc2c(c1)N(C(=O)c1ccc(Cl)cc1)CCS2` [Example 19], for which, at rat CB2 receptor (rCB2), the “rCB2 EC50 range” value is “−E”. Further, in assay [1], the “hCB2 EC50 range” value is reported as “−E”.
With `COCCCNC(=O)c1ccc2c(c1)N(C(=O)c1ccc(OC)cc1)CCS2` [Example 20], the “hCB2 EC50 range” value in assay [1] was “−E”.
With `CC(C)NC(=O)c1ccc2c(c1)N(C(=O)c1ccccc1)CCS2` [Example 26, 4-benzoyl-N-isopropyl-3,4-dihydro-2H-benzo[b][1,4]thiazine-6-carboxamide], the “rCB2 EC50 range” value on rat CB2 receptor (rCB2) was “−E”.
As for `CC(C)NC(=O)c1ccc2c(c1)N(C(=O)c1ccc(F)cc1)CCS2` [Example 27], the “rCB2 EC50 range” value at rat CB2 receptor (rCB2) is listed as “+D”. For the same compound, in assay [1], the “hCB2 EC50 range” value is on record as “+E”.
As for `CC(C)NC(=O)c1ccc2c(c1)N(C(=O)c1ccc(Cl)cc1)CCS2` [Example 29], at rat CB2 receptor (rCB2), the “rCB2 EC50 range” value is given as “+D”. The “hCB2 EC50 range” value in assay [1] is recorded as “+D”.
For the compound `COc1ccc(C(=O)N2CCSc3ccc(C(=O)NC(C)C)cc32)cc1` [Example 30, N-isopropyl-4-(4-methoxybenzoyl)-3,4-dihydro-2H-benzo[b][1,4]thiazine-6-carboxamide], the “rCB2 EC50 range” value at rat CB2 receptor (rCB2) is reported as “−E”. Also, the “hCB2 EC50 range” value in assay [1] is on record as “−E”.
With `CC(=O)N1CCSc2ccc(C(=O)NC(C)(C)C)cc21` [Example 32, 4-acetyl-N-tert-butyl-3,4-dihydro-2H-benzo[b][1,4]thiazine-6-carboxamide], the “rCB2 EC50 range” value on rat CB2 receptor (rCB2) is given as “−E”.
In the case of `CCC(=O)N1CCSc2ccc(C(=O)NC(C)(C)C)cc21` [Example 33, N-tert-butyl-4-propionyl-3,4-dihydro-2H-benzo[b][1,4]thiazine-6-carboxamide], in assay [1], the “hCB2 EC50 range” value is reported as “+D”.
As for `CC(C)C(=O)N1CCSc2ccc(C(=O)NC(C)(C)C)cc21` [Example 34, N-tert-butyl-4-isobutyryl-3,4-dihydro-2H-benzo[b][1,4]thiazine-6-carboxamide], the “rCB2 EC50 range” value on rat CB2 receptor (rCB2) is given as “+D”. Further, the “hCB2 EC50 range” value in assay [1] was “+D”.
In the case of `CC(=O)N1CCSc2ccc(C(=O)NC3CCCC3)cc21` [Example 35, 4-acetyl-N-cyclopentyl-3,4-dihydro-2H-benzo[b][1,4]thiazine-6-carboxamide], at rat CB2 receptor (rCB2), the “rCB2 EC50 range” value was “−E”. Besides, the “hCB2 EC50 range” value in assay [1] is “+E”.
Turning to `CCC(=O)N1CCSc2ccc(C(=O)NC3CCCC3)cc21` [Example 36, N-cyclopentyl-4-propionyl-3,4-dihydro-2H-benzo[b][1,4]thiazine-6-carboxamide], the “rCB2 EC50 range” value on rat CB2 receptor (rCB2) is “−E”. In addition, the “hCB2 EC50 range” value in assay [1] is “+E”.
As for `CC(C)C(=O)N1CCSc2ccc(C(=O)NC3CCCC3)cc21` [Example 37, N-cyclopentyl-4-isobutyryl-3,4-dihydro-2H-benzo[b][1,4]thiazine-6-carboxamide], on rat CB2 receptor (rCB2), the “rCB2 EC50 range” value is on record as “−E”. In assay [1], the “hCB2 EC50 range” value is “+E”.
As to `COCCCNC(=O)c1ccc2c(c1)N(C(=O)C(C)C)CCS2` [Example 38, 4-isobutyryl-N-(3-methoxypropyl)-3,4-dihydro-2H-benzo[b][1,4]thiazine-6-carboxamide], the “rCB2 EC50 range” value on rat CB2 receptor (rCB2) is on record as “−E”.
As to `CC(C)CNC(=O)c1ccc2c(c1)N(S(=O)(=O)c1ccccc1)CCS2` [Example 41, N-isobutyl-4-(phenylsulfonyl)-3,4-dihydro-2H-benzo-[b][1,4]thiazine-6-carboxamide], on rat CB2 receptor (rCB2), the “rCB2 EC50 range” value is on record as “+A”. Also, the “hCB2 EC50 range” value in assay [1] is “+C”.
On to `O=C(NC1CCCC1)c1ccc2c(c1)N(S(=O)(=O)c1ccccc1)CCS2` [Example 44, N-cyclopentyl-4-(phenylsulfonyl)-3,4-dihydro-2H-benzo[b][1,4]thiazine-6-carboxamide], for which the “rCB2 EC50 range” value on rat CB2 receptor (rCB2) is listed as “+B”. For the same compound, the “hCB2 EC50 range” value in assay [1] is recorded as “+C”.
`CC(C)(C)NC(=O)c1ccc2c(c1)N(S(=O)(=O)c1ccccc1)CCS2` [Example 46, N-tert-butyl-4-(phenylsulfonyl)-3,4-dihydro-2H-benzo[b][1,4]thiazine-6-carboxamide]: the “rCB2 EC50 range” value at rat CB2 receptor (rCB2) is on record as “+B”. In addition, in assay [1], the “hCB2 EC50 range” value is reported as “+B”.
Take `COCCCNC(=O)c1ccc2c(c1)N(S(=O)(=O)c1ccccc1)CCS2` [Example 48, N-(3-methoxypropyl)-4-(phenylsulfonyl)-3,4-dihydro-2H-benzo[b][1,4]thiazine-6-carboxamide]: the “rCB2 EC50 range” value at rat CB2 receptor (rCB2) is “+B”. Further, the “hCB2 EC50 range” value in assay [1] is “+D”.
As to `COCCCNC(=O)c1ccc2c(c1)N(S(C)(=O)=O)CCS2` [Example 56, N-(3-methoxypropyl)-4-(methylsulfonyl)-3,4-dihydro-2H-benzo[b][1,4]thiazine-6-carboxamide], at rat CB2 receptor (rCB2), the “rCB2 EC50 range” value is given as “+E”.
On to `O=C(c1ccc2c(c1)N(S(=O)(=O)c1ccc(C(F)(F)F)cc1)CCS2)N1CCCCC1` [Example 75, piperidin-1-yl(4-(4-(trifluoromethyl)phenylsulfonyl)-3,4-dihydro-2H-benzo[b][1,4]thiazin-6-yl)methanone], for which, on rat CB2 receptor (rCB2), the “rCB2 EC50 range” value is listed as “−C”.
For `O=S(=O)(c1ccc(C(F)(F)F)cc1)N1CCSc2ccc(-c3nc(-c4cccc(C(F)(F)F)c4)no3)cc21` [Example 80, 3-(3-(trifluoromethyl)phenyl)-5-(4-(4-(trifluoromethyl)phenylsulfonyl)-3,4-dihydro-2H-benzo[b][1,4]thiazin-6-yl)-1,2,4-oxadiazole], the “hCB2 EC50 range” value in assay [1] was “+D”.
Turning to `CC1(C)CCN(S(=O)(=O)c2ccc(F)cc2)c2cc(C(=O)N3CCCC3)ccc2S1` [Example 102, (5-(4-fluorophenyl-sulfonyl)-2,2-dimethyl-2,3,4,5-tetrahydro-benzo[b][1,4]thiazepin-7-yl)(pyrrolidin-1-yl)-methanone], the “rCB2 EC50 range” value at rat CB2 receptor (rCB2) was “+C”.
